Data set [1] relates to HCV NS5B variants (L419C/M/P/S/V, R422K, M423I/T/V, I482L/N/T, A486I/V, V494A). As to the kind of experiment: Phenotypic analysis of substitutions selected in patients during dosing, replicon system. It is filed as cell-based. As for the experimental part:
(§1) Treatment-naïve HCV genotype 1 patients (n=32) were randomized to receive VX-222 at doses of 250 mg BID, 500 mg BID, 750 mg BID, or 1500 mg QD for 3 days, in a treatment:placebo ratio of 6:2 (8 patients/cohort). Pegylated interferon (Peg-IFN) and ribavirin (RBV) for 48 weeks was offered to patients at the end of the study. Sequencing of NS5B was performed at baseline (Day 1), end of dosing (Day 3), and at follow-up timepoints (Days 4, 5, 10, 20, and 60). Phenotypic data (fold change in IC50 from wildtype) of substitutions selected in patients during dosing was determined using a replicon system.
(In general: Replicon systems follow genome replication, usually without infectious particles.)

Data set [2] relates to HCV NS5B substitution at position 486 (A486I/V). Briefly: Phenotypic analysis in replicon system, substitution at position 486. The class given is cell-based. As for the experimental part:
as §1

Data set [3] concerns V494A HCV replicon. Briefly: HCV replicon cell assay, real-time PCR, V494A. It is filed as cell-based, HCV genotype 1b. The text has this:
(§2) All mutations were introduced into the pFKI389/NS3-3′/adapt vector (Krieger et al., J. Virol., 75, 4614-4624 (2001); Lohmann et al., J. Virol., 77, 3007-3019 (2003)) by PCR-based site-directed mutagenesis and standard recombinant DNA technologies. The pFKI389/NS3-3′/adapt vector is a “cell culture adapted HCV replicon” containing a R465G mutation within the NS5B gene, and was obtained from Reblikon GmbH, Gau-Odernheim, Germany. The “cell culture adapted replicon” was chosen instead of the wild-type replicon because the R465G mutation was found in all of the progeny RNA isolated from 9.13 replicon cells used in drug susceptibility studies to compare the fold shift in IC50s (described further below). The adaptive R465G mutation in the NS5B region was previously reported (Krieger et al., supra) and found to be very efficient in generating replicon cell colonies after RNA transfection into Huh-7 cells. […]
(§3) The 9.13 replicon cells and the stable recombinant replicon cells were seeded in a 12-well culture dish at a density of 3×10^4 cells/well in a volume of 1 mL. […] The inhibitory effect of agents against wild-type replicon cells, resistant colonies, or recombinant replicon cells was determined by monitoring the levels of HCV RNA, normalized to cellular 18S ribosomal RNA, by real time PCR using the ABI PRISM® 7700 Sequence Detection System (Applied Biosystems, Foster City, Calif., USA). […]

Data set [4] deals with M423V HCV replicon. Briefly: HCV replicon cell assay, real-time PCR, M423V. The class given is cell-based, HCV genotype 1b.
Source text: as §2, §3

The subject of data set [5] is recombinant mutant replicons (L419M, M423V, M423T, M423I, I482L, A486V, V494A). As to the kind of experiment: HCV replicon cell assay, real-time PCR, all seven recombinant mutant replicons. It is filed as cell-based, HCV genotype 1b.
Source text: as §2, §3

Data set [6] concerns M423T HCV replicon. Briefly: HCV replicon cell assay, real-time PCR, M423T. It is filed as cell-based, HCV genotype 1b.
Source text: as §2, §3

In data set [7] the test system is HCV NS5B substitution at position 482 (I482L/N/T). As to the kind of experiment: Phenotypic analysis in replicon system, substitution at position 482. It is filed as cell-based. As for the experimental part: as §1
Data set [8] concerns A486V HCV replicon. Briefly: HCV replicon cell assay, real-time PCR, A486V. It is filed as cell-based, HCV genotype 1b.
Source text: as §2, §3

Data set [9] concerns I482L HCV replicon. As to the kind of experiment: HCV replicon cell assay, real-time PCR, I482L. It is filed as cell-based, HCV genotype 1b.
Source text: as §2, §3

Data set [10] has as its system genotype 1b replicon cells (9.13 replicon cells). Briefly: Selection of drug-resistant HCV replicon colonies under G418. The class given is cell-based, HCV genotype 1b. The source says: Drug-resistant HCV replicons were selected as previously described. (See, e.g., Amparo et al., 46th Conference on Antimicrobial Agents and Chemotherapy (ICAAC). 2006, Abstract 1273; Le Pogam et al., J. Virol., 80(12), 6146-54 (2006); Lin et al., J. Biol. Chem., 279(17), 17508-17514 (2004); Lu et al., Antimicrob. Agents Chemother., 48(6), 2260-2266 (2004); Trozzi et al., J. Virol., 77, 3669-3679 (2003)). Briefly, approximately 2.5×10^4 genotype 1a replicon cells (W11.8 replicon cells at passage 13) or genotype 1b replicon cells (9.13 replicon cells at passage greater than 100) were plated in 75 cm^2 cell culture flasks (Falcon 353136) in complete culture medium with high concentration of G418 (600 μg/mL). […]
(§4) Media and drugs were replaced twice a week over the course of the experiment. Three to four weeks following the initial plating, resistant clones of cells (colonies) were counted and randomly picked for culture or for direct RNA extraction. […]
Mutant replicons resistant to specific inhibitors were made using replicon constructs expressing the neomycin phosphotransferase gene (NPT). […] Cells containing mutant replicons with decreased sensitivity to an inhibitor give rise to colonies that can be counted, isolated, expanded and characterized.

In data set [11] the test system is L419M HCV replicon. As to the kind of experiment: HCV replicon cell assay, real-time PCR, L419M. It is filed as cell-based, HCV genotype 1b.
Source text: as §2, §3

Data set [12] concerns L419S HCV replicon. As to the kind of experiment: HCV replicon cell assay, real-time PCR, L419S resistant colony. It is filed as cell-based. To be noted: Hepatitis C virus, 96 h. Here is the method:
The 9.13 replicon cells and the stable recombinant replicon cells were seeded in a 12-well culture dish at a density of 3×10^4 cells/well in a volume of 1 mL. The cell culture media used for the assay was DMEM supplemented with 10% fetal bovine serum, 100 IU/mL of penicillin, 100 μg/mL streptomycin, non-essential amino acids, 2 mM glutamine and 10 mM HEPES. After incubating for 3-4 hours, candidate agents (drugs) were added at various concentrations for a final volume of 2 mL of the same culture media. Cells were incubated for 4 days at 37° C. with 5% CO2. Thereafter, total RNA (cellular and viral origin) was extracted using the RNeasy kit (Qiagen Inc.) according to the manufacturer's protocol. cDNA synthesis was performed using the MMLV reverse transcriptase and random hexamer primer (Invitrogen). The inhibitory effect of agents against wild-type replicon cells, resistant colonies, or recombinant replicon cells was determined by monitoring the levels of HCV RNA, normalized to cellular 18S ribosomal RNA, by real time PCR using the ABI PRISM® 7700 Sequence Detection System (Applied Biosystems, Foster City, Calif., USA). […]
as §4

Data set [13] concerns HCV NS5B substitution at position 494 (V494A). Briefly: Phenotypic analysis in replicon system, substitution at position 494. The class given is cell-based. Here is the method: as §1
In data set [14] the test system is HCV genotype 1. As to the kind of experiment: Phase Ib/IIa multicenter, randomized, dose-ascending study, 3 days of dosing. The class given is in vivo, human. Here is the method:
VX-222 is a non-nucleoside hepatitis C virus (HCV) NS5B polymerase inhibitor with potent in vitro activity. Safety, antiviral activity, and viral sequences were assessed in a phase Ib/IIa multicenter, randomized, dose-ascending study in genotype 1, HCV-infected patients.
as §1

Data set [15] has as its system HCV NS5B substitution at position 419 (L419C/M/P/S/V). Briefly: Phenotypic analysis in replicon system, substitution at position 419. The class given is cell-based. As for the experimental part:
as §1

Data set [16] relates to HCV NS5B substitution at position 423 (M423I/T/V). As to the kind of experiment: Phenotypic analysis in replicon system, substitution at position 423. The class given is cell-based. Here is the method:
as §1

Data set [17] relates to M423I HCV replicon. As to the kind of experiment: HCV replicon cell assay, real-time PCR, M423I. It is filed as cell-based, HCV genotype 1b.
Source text: as §2, §3

Data set [18] relates to HCV NS5B substitution at position 422 (R422K). Briefly: Phenotypic analysis in replicon system, substitution at position 422. It is filed as cell-based. As for the experimental part:
as §1

Setting [19] is: Hepatitis C virus, 96 h, 4 days, HCV RNA by real time PCR.
The mark [20] stands for this setting: 250-750 mg BID or 1500 mg QD for 3 days, patients.

One may read the IC50 as the point on the concentration scale where inhibition reaches its midpoint. Lower therefore signals greater potency in that assay.

Entries after “also recorded” stand apart in the source; their conditions may differ. A value given as a limit tells only on which side of the number the result lay.

In the case of `NC(=O)c1ncn([C@@H]2O[C@H](CO)[C@@H](O)[C@H]2O)n1` [RBV, ribavirin], the “sensitivity of VX-222-selected variants to the agent” value in data set [1] (in vitro) is listed as “did not have reduced sensitivity; also recorded: remained sensitive”.
`CC1CCC(C(=O)N(c2cc(C#CC(C)(C)C)sc2C(=O)O)C2CCC(O)CC2)CC1` (stereo not drawn) [VX-222]: the “fold change in IC50 from wildtype” value is reported as around 50 fold in data set [2]; 6-80 fold in [1] (range over all variants selected in patients); around 26 fold in [7]; “six” in data set [13]; 20-80 fold in data set [15]; “seven to ten” in [16]. The “fold change in IC50 from wildtype” value in data set [18] is recorded as around 74 fold. In addition, the “IC50 Fold-Change vs Wild-Type Replicon” value in data set [3] is “≈5.9 fold”; in data set [4], 10 fold and ≈10 fold; in [6], 29 fold and ≈29 fold; in [8], 50 fold and ≈50 fold; in data set [9], “≈26 fold”; in data set [11], 80 fold and ≈80 fold. The “IC50 Fold-Change vs Wild-Type Replicon” value in data set [17] is 7.1 fold and ≈7.1 fold. The IC50 is 132 nM in [3] (setting [19]); 110 nM in data set [4] (setting [19]); 319 nM in data set [6] (setting [19]); 843 nM in data set [8] (setting [19]); 290 nM in data set [9] (setting [19]); 900 nM in data set [11] (setting [19]). The IC50 in data set [12] was above 2000 nM; in data set [17] (setting [19]) it was 77.2 nM. For the same molecule, in data set [5], the “fold increase of IC50 vs wild-type replicon cells” value is recorded as 6- to 80 fold. For the same molecule, the resistant colony formation entry in data set [10] (VX-222 concentration of about 300 fold of the IC50, G418 selection) is “No colony could be readily detected”. Moreover, the “frequency of resistant clones” value in data set [10] (equivalent IC50-fold concentration of VX-222, genotype 1b vs genotype 1a replicon cell line, not side by side) was “higher for the genotype 1b replicon cell line than for the genotype 1a replicon cell line”. Besides, the “mean HCV RNA decline” value is on record as 3.1 log 10 in data set [14] (250 mg (BID), after three days of dosing, treatment-naive genotype 1 patients); 3.4 log 10 in [14] (500 mg (BID), after three days of dosing, treatment-naive genotype 1 patients); 3.2 log 10 in data set [14] (750 mg (BID), after three days of dosing, treatment-naive genotype 1 patients); 3.4 log 10 in [14] (1500 mg (QD), after three days of dosing, treatment-naive genotype 1 patients); “greater than 3 log 10” in data set [14] (all four dose groups). In addition, the “most common reported adverse effects (AEs)” value in data set [14] (setting [20]) is “diarrhea, headache, nausea, fatigue and fever”. In addition, the “severity of the majority of AEs” value in data set [14] (setting [20]) was “mild in severity”.

The values are drawn from US20130157258A1, “HCV NS5B PROTEASE MUTANTS” (VERTEX PHARMACEUTICALS INCORPORATED, priority 2010, published 2013).
